# Starred links: 1 amine or outer side, 2 acyl side, 3 side chain; linkers in the order of their positions; H or OH if unused. Non-standard residues stand in square brackets, D forms with d. Residues, ends and D or L forms follow the SMILES beside them. *: point of attachment. Palmitoyl = CCCCCCCCCCCCCCCC(=O)*; AzaAla = CN(N[*:1])C(=O)[*:2]
# Tests used:
# GLP-1R [1] = molecular target: T1, GLP-1R (Homo sapiens, UniProt P43220)
# GIPR = molecular target: T2, GIPR (Homo sapiens, UniProt P48546); experiment: cAMP luciferase reporter assay, GIPR agonism; type: cell-based
# T2 sequence (P48546 22-466): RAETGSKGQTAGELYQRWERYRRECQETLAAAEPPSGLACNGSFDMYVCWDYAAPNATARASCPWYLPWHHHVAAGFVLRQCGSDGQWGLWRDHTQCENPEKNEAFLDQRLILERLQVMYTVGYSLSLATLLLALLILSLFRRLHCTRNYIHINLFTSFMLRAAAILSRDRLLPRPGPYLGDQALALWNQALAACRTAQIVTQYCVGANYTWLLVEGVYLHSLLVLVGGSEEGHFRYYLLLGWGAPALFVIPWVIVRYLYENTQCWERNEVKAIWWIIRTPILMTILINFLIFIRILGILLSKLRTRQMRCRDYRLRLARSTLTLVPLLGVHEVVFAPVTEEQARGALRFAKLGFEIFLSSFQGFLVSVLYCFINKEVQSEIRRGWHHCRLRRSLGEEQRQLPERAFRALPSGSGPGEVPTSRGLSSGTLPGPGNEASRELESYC
# GLP-1R [2] = molecular target: T1, GLP-1R; experiment: cAMP luciferase reporter assay, GLP-1R agonism; type: cell-based
# GLP-1R [3] = molecular target: T1, GLP-1R; settings: alanine scanning of GLP-1; cited from earlier work
# T1 sequence (P43220 24-463): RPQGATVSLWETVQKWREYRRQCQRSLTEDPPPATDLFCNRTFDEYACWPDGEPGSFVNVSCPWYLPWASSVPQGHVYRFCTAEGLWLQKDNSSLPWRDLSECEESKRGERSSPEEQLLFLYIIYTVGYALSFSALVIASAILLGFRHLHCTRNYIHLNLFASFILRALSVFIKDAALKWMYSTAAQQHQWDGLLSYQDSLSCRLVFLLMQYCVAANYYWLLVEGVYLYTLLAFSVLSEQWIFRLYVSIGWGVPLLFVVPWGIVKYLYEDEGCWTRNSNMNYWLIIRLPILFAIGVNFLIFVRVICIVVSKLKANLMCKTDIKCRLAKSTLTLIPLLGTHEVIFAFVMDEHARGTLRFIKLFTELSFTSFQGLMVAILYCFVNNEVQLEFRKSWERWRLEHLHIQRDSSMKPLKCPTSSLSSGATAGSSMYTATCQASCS
molecule,measurement,setting,value
"CCCCCCCCCCCCCCCC(=O)NCCCC[C@H](NC(=O)[C@H](CO)NC(=O)[C@@H]1CCCN1C(=O)[C@@H]1CCCN1C(=O)[C@@H]1CCCN1C(=O)[C@H](C)NC(=O)CNC(=O)[C@H](CO)NC(=O)[C@H](CO)NC(=O)[C@@H]1CCCN1C(=O)CNC(=O)CNC(=O)[C@H](C)NC(=O)[C@H](CC(C)C)NC(=O)[C@H](CC(C)C)NC(=O)[C@H](Cc1c[nH]c2ccccc12)NC(=O)[C@H](CC(N)=O)NC(=O)[C@@H](NC(=O)[C@H](Cc1ccccc1)NC(=O)[C@H](CCC(=O)O)NC(=O)[C@H](C)NC(=O)[C@H](C)NC(=O)[C@H](C)NC(=O)[C@H](CCC(N)=O)NC(=O)[C@H](CCCCN)NC(=O)[C@H](CC(=O)O)NC(=O)[C@H](CC(C)C)NC(=O)[C@H](Cc1ccc(O)cc1)NC(=O)[C@@H](NC(=O)[C@H](CO)NC(=O)[C@H](Cc1ccc(O)cc1)NC(=O)[C@H](CC(=O)O)NC(=O)[C@H](CO)NC(=O)[C@@H](NC(=O)[C@H](Cc1ccccc1)NC(=O)[C@@H](NC(=O)CNC(=O)[C@H](CCC(=O)O)NC(=O)N(C)NC(=O)[C@@H](N)Cc1ccc(O)cc1)[C@@H](C)O)[C@@H](C)O)[C@@H](C)CC)C(C)C)C(N)=O [DA X2AzaA, X20A] (H-Y[AzaAla]EGTFTSDYSIYLDKQAAAEFVNWLLAGGPSSGAPPPSK(Palmitoyl)-NH2; N-terminus and C-terminus assumed)",Fold-Shift (↓) = (EC50 with DPP4)/(EC50 without DPP4),GLP-1R [1],1.0
same,EC50,GIPR,2.51 pM
same,efficacy compared to native ligand (in words),"GIPR; GIPR, cAMP luciferase reporter assay",equiefficacious
same,efficacy compared to native ligand (in words),GLP-1R [2],equiefficacious
"Glu9Ala variant: literature alanine-scan variant of GLP-1 (HDEFERHAAGTFTSDVSSYLEGQAAKEFIAWLVKGRG; Glucagon-like peptide 1; UniProt P01275 92-128, looked up, variant E9A)",adenylyl cyclase activity (in words),GLP-1R [3],equivalent adenylyl cyclase activity

# Reference: article PMC13242721 (Angewandte Chemie (International ed. in English), 2024)
